# Measurements reported in US20130150377A1, “Tetrahydropyridinyl and Dihydropyrrolyl Compounds and the Use Thereof” (SHIONOGI & CO., LTD., priority 2008, published 2013).
# Structures can show the parent of a compound that is named as a salt.
# Biological target: T1, N-type calcium channel (NTCC) (Homo sapiens, UniProt Q00975)
# T1 construct: endogenous in cells; host or cells: differentiated IMR32 cells (ATCC)
# Test: FLIPR calcium mobilization assay for N-type calcium channel (differentiated IMR32 cells)
# Format: cell-based
# Conditions: N-type calcium channel blockers, calcium mobilization in vitro assay
# Experimental: Cell maintenance and differentiation. Unless noted otherwise, cell culture reagents were purchased from Mediatech of Herndon, Md. IMR32 cells (American Type Culture Collection, ATCC, Manassas, Va.) were routinely cultured in growth medium consisting of minimum essential medium containing 10% fetal bovine serum (FBS, Hyclone, Logan, Utah), 100 U/mL penicillin, 100 μg/mL streptomycin, 2 mM L-glutamine, 1 mM sodium pyruvate, and 1×MEM non-essential amino acids. 80-90% confluent flasks of cells were differentiated using the following differentiation medium: Growth medium plus 1 mM dibutyryl cyclic AMP (Sigma, St. Louis, Mo.), and 2.5 μM bromodeoxyuridine (Sigma). Cells were differentiated for 8 days by replacing differentiation medium every 2-3 days.
# FLIPR Calcium Mobilization Assay for N-type Calcium Channel.
# One day prior to performing this assay, differentiated IMR32 cells were treated with 1× CellStripper, and seeded on poly-D-lysine-coated 96-well clear-bottom black plates (Becton Dickinson, Franklin Lakes, N.J.) at 200,000 cells/well. On the day of the assay, the cell plates were washed with IMR32 buffer (127 mM NaCl, 1 mM KCl, 2 mM MgCl2, 700 μM NaH2PO4, 5 mM CaCl2, 5 mM NaHCO3, 8 mM HEPES, 10 mM glucose, pH 7.4), then pre-stimulated with KCl and loaded as follows: […] of IMR32 buffer, 0.05 mL of each compound tested diluted in IMR32 buffer containing 20 μM nitrendipine (Sigma), and 0.1 mL KCl dissolved in IMR32 buffer, plus Fluo-4 were added (3 μM final concentration, Molecular Probes, Eugene, Oreg.). Final test compound concentrations ranged from about 846 pM to about 17 μM, final nitrendipine concentration was 5 μM, and final KCl concentration was 90 mM. After 1 hour, the cells were washed twice with 0.05 mL of each compound tested in nitrendipine-containing IMR32 buffer (no KCl or Fluo-4), and then replaced with 0.1 mL of each compound tested in nitrendipine-containing IMR32 buffer. Plates were then transferred to a Fluorimetric Imaging Plate Reader (FLIPR^96, Molecular Devices, Inc., Sunnyvale, Calif.) for assay. The FLIPR measured basal Fluo-4 fluorescence for 315 seconds (i.e., 5 minutes and 15 seconds), then added 0.1 mL KCl agonist dissolved in IMR32 buffer and measured fluorescence for another 45 seconds. Final test compound concentrations on the cells after FLIPR read ranged from about 846 pM to about 17 μM, final nitrendipine concentration was 5 μM, and final KCl concentration was 90 mM. Data were collected over the entire time course and analyzed using Excel, Graph Pad Prism (version 3.02, Graph Pad, San Diego, Calif.), or an in-house non-linear regression analysis software.
# T1 sequence (Q00975 whole entry): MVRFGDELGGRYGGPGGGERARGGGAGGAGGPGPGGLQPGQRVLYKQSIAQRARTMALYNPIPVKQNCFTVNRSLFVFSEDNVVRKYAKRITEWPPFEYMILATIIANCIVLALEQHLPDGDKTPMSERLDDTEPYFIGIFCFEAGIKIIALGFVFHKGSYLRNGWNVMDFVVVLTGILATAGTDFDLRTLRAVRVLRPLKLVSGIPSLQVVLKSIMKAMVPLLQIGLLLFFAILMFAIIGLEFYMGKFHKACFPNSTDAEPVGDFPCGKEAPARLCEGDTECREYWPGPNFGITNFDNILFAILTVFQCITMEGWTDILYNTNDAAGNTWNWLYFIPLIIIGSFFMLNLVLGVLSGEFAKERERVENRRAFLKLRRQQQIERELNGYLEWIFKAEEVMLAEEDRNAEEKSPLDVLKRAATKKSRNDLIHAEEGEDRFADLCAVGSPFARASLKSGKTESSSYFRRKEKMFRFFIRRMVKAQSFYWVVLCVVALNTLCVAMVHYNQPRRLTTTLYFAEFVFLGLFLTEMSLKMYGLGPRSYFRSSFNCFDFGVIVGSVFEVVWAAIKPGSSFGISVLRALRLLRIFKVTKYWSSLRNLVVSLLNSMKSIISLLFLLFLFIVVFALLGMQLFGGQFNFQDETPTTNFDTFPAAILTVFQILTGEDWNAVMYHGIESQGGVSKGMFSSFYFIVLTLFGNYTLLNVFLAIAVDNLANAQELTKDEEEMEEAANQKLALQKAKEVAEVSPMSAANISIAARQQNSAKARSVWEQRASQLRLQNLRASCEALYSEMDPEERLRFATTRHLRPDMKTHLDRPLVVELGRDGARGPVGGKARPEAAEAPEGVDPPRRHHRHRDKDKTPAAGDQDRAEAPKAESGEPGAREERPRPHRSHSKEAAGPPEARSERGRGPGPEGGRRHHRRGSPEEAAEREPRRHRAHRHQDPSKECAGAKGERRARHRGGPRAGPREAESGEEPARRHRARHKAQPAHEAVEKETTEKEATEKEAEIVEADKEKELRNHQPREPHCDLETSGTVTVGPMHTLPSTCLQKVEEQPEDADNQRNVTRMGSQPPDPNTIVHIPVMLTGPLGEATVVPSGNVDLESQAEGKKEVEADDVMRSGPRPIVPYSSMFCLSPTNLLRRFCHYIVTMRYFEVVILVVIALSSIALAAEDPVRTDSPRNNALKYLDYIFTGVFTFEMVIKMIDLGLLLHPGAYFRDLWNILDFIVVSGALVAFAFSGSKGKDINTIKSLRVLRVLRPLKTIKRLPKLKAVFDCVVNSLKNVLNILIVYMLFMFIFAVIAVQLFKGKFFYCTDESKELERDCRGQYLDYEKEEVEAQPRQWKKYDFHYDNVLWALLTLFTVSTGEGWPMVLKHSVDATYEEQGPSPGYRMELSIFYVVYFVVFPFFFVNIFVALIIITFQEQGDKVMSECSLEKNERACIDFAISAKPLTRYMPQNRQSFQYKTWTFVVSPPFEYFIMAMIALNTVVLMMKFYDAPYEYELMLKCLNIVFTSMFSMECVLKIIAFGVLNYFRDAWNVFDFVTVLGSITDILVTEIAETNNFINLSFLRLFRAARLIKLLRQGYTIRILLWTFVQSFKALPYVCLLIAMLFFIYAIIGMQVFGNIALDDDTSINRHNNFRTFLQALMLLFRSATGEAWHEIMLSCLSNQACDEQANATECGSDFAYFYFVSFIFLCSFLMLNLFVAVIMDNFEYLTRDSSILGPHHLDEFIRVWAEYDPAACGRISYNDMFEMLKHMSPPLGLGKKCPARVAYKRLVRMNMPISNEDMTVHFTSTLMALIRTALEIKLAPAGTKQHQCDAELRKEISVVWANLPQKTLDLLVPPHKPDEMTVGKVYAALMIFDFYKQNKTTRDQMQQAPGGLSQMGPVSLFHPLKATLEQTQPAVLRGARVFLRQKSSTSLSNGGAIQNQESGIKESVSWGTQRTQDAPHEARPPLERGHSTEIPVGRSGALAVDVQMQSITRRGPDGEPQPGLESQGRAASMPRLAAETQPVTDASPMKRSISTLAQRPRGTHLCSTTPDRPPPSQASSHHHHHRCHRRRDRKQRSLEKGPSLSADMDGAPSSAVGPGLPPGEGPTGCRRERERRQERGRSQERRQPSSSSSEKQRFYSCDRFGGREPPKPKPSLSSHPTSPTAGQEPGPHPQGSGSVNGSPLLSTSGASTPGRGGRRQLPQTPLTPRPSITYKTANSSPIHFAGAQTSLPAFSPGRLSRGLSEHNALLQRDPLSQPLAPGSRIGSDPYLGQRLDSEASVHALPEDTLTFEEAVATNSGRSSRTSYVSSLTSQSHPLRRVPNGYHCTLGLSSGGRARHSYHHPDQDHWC
# T1 sequence (P54289 25-956 partner limits assumed): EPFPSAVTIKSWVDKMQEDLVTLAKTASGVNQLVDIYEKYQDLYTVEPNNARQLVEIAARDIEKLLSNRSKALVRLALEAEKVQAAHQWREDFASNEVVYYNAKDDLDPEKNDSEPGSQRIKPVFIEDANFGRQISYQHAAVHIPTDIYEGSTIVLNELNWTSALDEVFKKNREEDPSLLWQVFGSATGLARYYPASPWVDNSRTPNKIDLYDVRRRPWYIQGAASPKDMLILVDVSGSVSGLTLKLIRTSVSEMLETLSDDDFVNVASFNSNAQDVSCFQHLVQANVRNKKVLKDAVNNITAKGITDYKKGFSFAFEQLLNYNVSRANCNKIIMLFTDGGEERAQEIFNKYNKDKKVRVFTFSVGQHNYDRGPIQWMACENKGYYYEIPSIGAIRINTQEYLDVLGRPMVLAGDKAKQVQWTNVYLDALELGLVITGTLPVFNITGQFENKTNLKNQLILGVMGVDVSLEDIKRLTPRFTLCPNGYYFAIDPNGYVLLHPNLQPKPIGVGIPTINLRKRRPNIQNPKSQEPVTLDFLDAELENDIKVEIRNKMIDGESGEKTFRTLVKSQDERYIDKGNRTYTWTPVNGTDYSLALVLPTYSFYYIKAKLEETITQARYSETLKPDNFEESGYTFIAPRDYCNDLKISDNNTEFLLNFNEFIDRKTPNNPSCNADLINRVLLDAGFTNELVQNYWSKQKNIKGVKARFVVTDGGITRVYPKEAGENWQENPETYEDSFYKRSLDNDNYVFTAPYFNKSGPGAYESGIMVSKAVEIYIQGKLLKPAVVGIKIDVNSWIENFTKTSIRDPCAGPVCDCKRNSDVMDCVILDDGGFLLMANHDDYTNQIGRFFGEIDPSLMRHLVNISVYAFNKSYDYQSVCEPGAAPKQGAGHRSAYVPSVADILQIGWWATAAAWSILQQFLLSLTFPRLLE
# T1 sequence (P54289 957-1103 partner limits assumed): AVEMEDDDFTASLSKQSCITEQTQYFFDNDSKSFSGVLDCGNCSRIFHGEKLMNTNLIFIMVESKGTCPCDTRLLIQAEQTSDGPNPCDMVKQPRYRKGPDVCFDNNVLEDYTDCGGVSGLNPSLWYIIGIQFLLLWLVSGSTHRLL
# T1 sequence (P54284 whole entry partner): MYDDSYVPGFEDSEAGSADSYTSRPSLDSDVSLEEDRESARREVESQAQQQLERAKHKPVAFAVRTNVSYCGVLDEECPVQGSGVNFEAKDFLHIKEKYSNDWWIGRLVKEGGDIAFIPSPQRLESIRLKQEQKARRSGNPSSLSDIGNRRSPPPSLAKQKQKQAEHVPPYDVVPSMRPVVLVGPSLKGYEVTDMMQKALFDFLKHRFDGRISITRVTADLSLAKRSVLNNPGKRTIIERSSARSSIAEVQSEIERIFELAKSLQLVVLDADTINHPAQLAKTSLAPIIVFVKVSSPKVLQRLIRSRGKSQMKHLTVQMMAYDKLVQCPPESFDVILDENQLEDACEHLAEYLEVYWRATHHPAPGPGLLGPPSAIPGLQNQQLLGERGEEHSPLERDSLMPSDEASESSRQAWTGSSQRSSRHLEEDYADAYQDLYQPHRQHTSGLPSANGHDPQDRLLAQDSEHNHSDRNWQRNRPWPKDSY
row,IC50,Structure (SMILES)
1,10 nM,"O=C(NCC1CC1)c1cccc(C2=CCN(S(=O)(=O)c3cccc(C(F)(F)F)c3)CC2)n1 [Compound 27, 1′-(3-Trifluoromethylbenzenesulfonyl)-1′,2′,3′,6′-tetrahydro-[2,4′]bipyridinyl-6-carboxylic acid cyclopropylmethylamide]"
2,590 nM,"NC(=O)c1cccc(C2=CCN(S(=O)(=O)c3cccc(C(F)(F)F)c3)CC2)n1 [Compound 28, 1′-(3-Trifluoromethylbenzenesulfonyl)-1′,2′,3′,6′-tetrahydro-[2,4′]bipyridinyl-6-carboxylic acid amide]"
3,1600 nM,"N#Cc1cccc(C2=CCN(S(=O)(=O)c3cccc(C(F)(F)F)c3)CC2)n1 [Compound 32, 1′-(3-Trifluoromethylbenzenesulfonyl)-1′,2′,3′,6′-tetrahydro-[2,4′]bipyridinyl-6-carbonitrile]"
4,320 nM,"N=C(NCC1CC1)c1cccc(C2=CCN(S(=O)(=O)c3ccc(OC(F)(F)F)cc3)CC2)n1 [Compound 34, N-Cyclopropylmethyl-1′-(4-trifluoromethoxybenzenesulfonyl)-1′,2′,3′,6′-tetrahydro-[2,4′]bipyridinyl-6-carboxamidine]"
5,60 nM,"O=C(NC1CC1)c1ccnc(C2=CCN(S(=O)(=O)c3cccc(C(F)(F)F)c3)CC2)n1 [Compound 39, 2-[1-(3-Trifluoromethylbenzenesulfonyl)-1,2,3,6-tetrahydropyridin-4-yl]pyrimidine-4-carboxylic acid cyclopropylamide]"
6,60 nM,"O=C(NC1CC1)c1nc(C2=CCN(S(=O)(=O)c3cccc(C(F)(F)F)c3)CC2)ccc1Cl [Compound 44, 5-Chloro-1′-(3-trifluoromethylbenzenesulfonyl)-1′,2′,3′,6′-tetrahydro-[2,4′]bipyridinyl-6-carboxylic acid cyclopropylamide]"
7,20 nM,"O=C(NC1CC1)c1cccc(C2=CC(=O)N(S(=O)(=O)c3cccc(C(F)(F)F)c3)CC2)n1 [Compound 45, 6′-Oxo-1′-(3-trifluoromethylbenzenesulfonyl)-1′,2′,3′,6′-tetrahydro-[2,4′]bipyridinyl-6-carboxylic acid cyclopropylamide]"
8,320 nM,"O=C(NC1CC1)c1coc(C2=CCN(S(=O)(=O)c3ccc(OC(F)(F)F)cc3)CC2)n1 [Compound 61, 2-[1-(4-Trifluoromethoxybenzenesulfonyl)-1,2,3,6-tetrahydropyridin-4-yl]oxazole-4-carboxylic acid cyclopropylamide]"
9,2760 nM,"O=C(NC1CC1)c1cccc(C2=CCN(Cc3cc(C(F)(F)F)no3)CC2)n1 [Compound 76, N-Cyclopropyl-6-{1-[(3-trifluoromethylisoxazol-5-yl)methyl]-1,2,3,6-tetrahydropyridin-4-yl}picolinamide hydrochloride]"
10,300 nM,"O=C(Nc1cccc(C2=CCN(S(=O)(=O)c3cccc(C(F)(F)F)c3)CC2)n1)C1CC1 [Compound 82, 1′-(3-Trifluoromethylbenzenesulfonyl)-1′,2′,3′,6′-tetrahydro[2,4′]bipyridinyl-6-cyclopropanoylamine]"
11,1050 nM,"O=C(NC1CC1)c1cccc(C2=CCN(S(=O)(=O)Nc3cccc(C(F)(F)F)c3)CC2)n1 [Compound 86, 1′-[(3-Trifluoromethylbenzene)aminosulfonyl]-1′,2′,3′,6′-tetrahydro-[2,4′]bipyridinyl-6-carboxylic acid cyclopropylamide]"

row,Structure (SMILES),IC50
1,"O=C(NC1CC1)c1cccc(C2=CCN(Cc3ccc(OC(F)(F)F)cc3)CC2)n1 [Compound 9, 1′-(4-Trifluoromethoxybenzyl)-1′,2′,3′,6′-tetrahydro-[2,4′]bipyridinyl-6-carboxylic acid cyclopropylamide]",930 nM
2,"O=C(NC1CC1)c1cccc(C2=CC3CCC(C2)N3S(=O)(=O)c2cccc(C(F)(F)F)c2)n1 (centres unmarked) [Compound 55, 6-[8-(3-Trifluoromethylbenzenesulfonyl)-8-aza-bicyclo[3.2.1]oct-2-en-3-yl]pyridine-2-carboxylic acid cyclopropylamide]",50 nM
3,"O=C(NC1CC1)c1cccc(C2=CCN(C(c3ccc(OC(F)(F)F)cc3)C(F)(F)F)CC2)n1 (centres unmarked) [Compound 64, 1′-[2,2,2-Trifluoro-1-(4-trifluoromethoxyphenyl)ethyl]-1′,2′,3′,6′-tetrahydro-[2,4′]bipyridinyl-6-carboxylic acid cyclopropylamide]",320 nM
4,"O=C(NC1CC1)c1cccc(C2=CCN(C(CO)c3ccc(OC(F)(F)F)cc3)CC2)n1 (centres unmarked) [Compound 67, 1′-[2-Hydroxy-1-(4-trifluoromethoxyphenyl)ethyl]-1′,2′,3′,6-tetrahydro-[2,4′]bipyridinyl-6-carboxylic acid cyclopropylamide]",1340 nM

# Biological target: T2, L-type calcium channel (LTCC) subunits (α1c, α2δ, and β1) (Rattus norvegicus, UniProt P22002)
# T2 construct: expressed in transfected cells; pcDNA6.2DEST α1c, pcDNA3.2DEST β1, pcDNA3.1-Zeo α2δ)
# Test: FLIPR calcium mobilization assay for L-type calcium channel (HEK293 cells expressing recombinant LTCC subunits)
# Format: cell-based
# Conditions: calcium mobilization assay for L-type calcium channel blocking activity
# Experimental: Recombinant human embryonal kidney cells (HEK293, ATCC) stably transfected with either N-type calcium channel (NTCC) subunits (α1b, α28, and β3) or L-type calcium channel (LTCC) subunits (α1c, α2δ, and […]) were routinely cultured in growth medium consisting of Dulbecco's Modified Eagles Medium containing 10% FBS, 100 U/mL penicillin, 100 μg/mL streptomycin, 4 mM L-glutamine, 500 μg/mL geneticin (G418), 20 μg/mL Blasticidin S (InVivogen, San Diego, Calif.) and 500 μg/mL zeocin (InVivogen).
# FLIPR Calcium Mobilization Assay for L-type Calcium Channel.
# One day prior to performing this assay, HEK293 cells stably expressing recombinant rat L-type calcium channel (LTCC) subunits (α1c, α2δ, and β1) were trypsinized, then seeded on poly-D-lysine-coated 96-well clear-bottom black plates (Becton Dickinson, Franklin Lakes, N.J.) at 75,000 cells/well. […] The FLIPR measured basal Fluo-4 fluorescence for 15 seconds, then added 0.05 mL of each compound tested diluted in LTCC assay buffer at final concentrations ranging from about 846 pM to about 17 μM. Fluo-4 fluorescence was then measured for 5 minutes. 0.1 mL KCl agonist dissolved in LTCC assay buffer was, then added to the cells to produce a final concentration of 90 mM KCl, and fluorescence was measured for another 45 seconds. […]
row,Structure (SMILES),IC50
1,"O=C(NC1CC1)c1cccc(C2=CCN(Cc3ccc(OC(F)(F)F)cc3)CC2)n1 [Compound 9, 1′-(4-Trifluoromethoxybenzyl)-1′,2′,3′,6′-tetrahydro-[2,4′]bipyridinyl-6-carboxylic acid cyclopropylamide]",> 20000 nM
2,"O=C(NC1CC1)c1cccc(C2=CC(=O)N(S(=O)(=O)c3cccc(C(F)(F)F)c3)CC2)n1 [Compound 45, 6′-Oxo-1′-(3-trifluoromethylbenzenesulfonyl)-1′,2′,3′,6′-tetrahydro-[2,4′]bipyridinyl-6-carboxylic acid cyclopropylamide]",> 20000 nM
